Structures can show the parent of a compound that is named as a salt. Where two headings read alike, the source gives them in different places. Blank lines part the entries; values can stand above or below the compound they belong to.
Columns and labels:
[1] = test system: platelets (Human Platelet Rich Plasma); test: In vitro inhibition of ADP-induced platelet aggregation; format: cell-based; settings: submaximal ADP (1-4 μM), mean ± s.d.
Description: The method used in the assays is substantially the same as described in following reference: • * Sales, E., at al., Br. J. Pharmacol. 112 (1994); 1071-1076.
The compounds are tested at four different concentrations, using platelet rich plasma from not less than 6 different healthy human donors. The results obtained are compared to those from 5-isosorbide mononitrate, which is used as reference product.
The results are shown in table 2 and are expressed as IC50 (inhibitory concentration 50), which is the concentration of each of the tested compounds yielding an inhibition equal to 50% of the aggregation obtained with a submaximal concentration (1-4 μM) of ADP (a submaximal concentration of ADP is the minimal amount of ADP which produces the maximal aggregation).

LDL = test: Inhibition of LDL oxidation induced by haemin and H2O2 (conjugated dienes, 234 nm); format: biochemical, human; settings: compounds at 10 μM; 2.5 μM haemin and 5 μM H2O2; mean ± s.e.m.
Text: The method used in the assays to determine the effect of the compounds on LDL oxidation is substantially the same as described in the following references: • Sprenger T., et al., Chem. Phys. Lipids 1998; 91:39-52 • Lynch S. M., et al., Biochim. Biophys. Acta 2000; 1485:11-22 • Pedreño J., et al., Thromb. Res. 2000; 99: 51-60.
The method used in the assays to isolate LDL particles from fresh human plasma is substantially the same as described in Pedreño J., et al., Atherosclerosis 2001; 155: 99-112.
Oxidative modification of low-density lipoprotein (LDL) is currently believed to be a central event it the development of atherosclerotic cardiovascular disease. The exposition of LDL to globin-free haemin (the complex of ferric ion (Fe^3+) with protoporphyrin IX), derived from the haemoglobin in circulating erythrocytes, serves as a physiological source of pro-oxidant Fe^3+ capable to promoting LDL oxidation. The compounds were added in vitro to determine their inhibitory activity on LDL oxidation induced by haemin and H2O2. LDL at a final protein concentration of 0.2 mg/ml was incubated in the presence of 2.5 μM haemin and 5 μM H202. Oxidative modification of LDL particles was assessed by measurement of conjugated dienes. Experimental samples were incubated at 37° C. and the increase in absorbance at 234 nm was automatically recorded every 5 min for at least 5 h. The effect of compounds on the LDL oxidation induced by haemin was tested at 7 different concentrations using LDL preparations from 7 different healthy donors.

[2] = test system: heparinized plasma (plasma lipoproteins); test: Inhibition of plasma oxidation induced by Cu2+ (absorbance 234 nm); format: biochemical; settings: compounds at 10 μM; 50 μM CuSO4; mean ± s.e.m.
Description: The method used in the assays to determine the effect of compounds on the capacity of oxidation of the plasma is substantially the same as described in Spranger T. et al., Chem Phys Lipids 1998; 91: 39-52.
Lipoprotein oxidation induced in vitro in plasma is expected to represent a relevant model of the lipoprotein oxidation in the arterial wall. Oxidation of plasma lipoproteins was assessed as the capacity of oxidation of heparinized plasma and was measured by spectrophotometry as in increase in absorbance at 234 nm. The compounds were added in vitro to determine their inhibitory activity over the capacity of oxidation of plasma induced by Cu^2+ (CuSO4). Heparinized plasma was diluted with phosphate-buffered saline solution (PBS) containing 0.16 M NaCl, and the oxidation was started by 50 μM CuSO4. Experimental samples were incubated at 37° C. and the increase in absorbance at 234 nm was automatically recorded every 15 min for at least 12 h. The effect of compounds over the capacity of oxidation of plasma induced by Cu^2+ was tested at 7 different concentrations using heparinizaded plasma from 7 different healthy donors.

arterial rings = test: Test of vasorelaxation on arterial rings contracted with phenylephrine; format: cell-based; settings: read-out: EC50 (vasodilatation equal to 50% of the maximum tone)
Description: The method used in the assays is substantially the same as described in following references: • * Furchgot, R. F., “Methods in nitric oxide research”; Feelisch & Stamler, eds., John Wiley & Sons, Chichester, England, pp 567-581. • * Trongvanbichnam K., et al., Jpn. J. Pharmacol. 71 (1996); 167-173. • * Sales, E., at al., Eur. J. Pharmacol. 258 (1994); 47-55.
The different compounds are tested at 5 different concentrations, at a concentration range from 0.0001 to 10 mM, using from 6 to 9 arterial rings for each compound. The obtained results are compared to those from the isosorbide 5-mononitrate, which is used as reference product.
The results are shown in table 1 below and are provided as EC50 (effective concentration 50), which is the concentration of each of the tested, compounds yielding a vasodilatation equal to 50% of the maximum tone at which the artery ring has been contracted with 1 μM of Phenylephrine.

[3] = test system: Rats, left carotid artery thrombosis (FeCl3); test: In vivo synergistic antithrombotic effect, FeCl3 carotid artery thrombosis, single drugs and combinations; set-up: species or system rat; settings: for Rate of animals with thrombotic occlusion: control 1
Description: The method used is substantially the same as described by Kurz (Kurz K. D., at al., Thromb. Res. 1990, 60: 269-280) and modified by Feuerstein (Feuerstein G. Z., et al., Artherioscler, Thromb. Vasc. Biol. 1999, 19: 2554-25562). […]
Forty-five minutes after dosing administration, rats were anaesthetized with sodium pentobarbital (40 mg/kg, i.p.) and they were placed later dorsally on a heated (37° C.) surgical board.
The left carotid artery was isolated and a Parafilm M sheet (7×20 mm, American National Can) was placed under it. An electromagnetic sounding of flow (Transonic Systems Inc.) was placed on the artery to measure blood flow.
(§1) Sixty minutes after product administration, a paper patch saturated with FeCl3 solution (70%) was placed (and not removed for the whole duration of the experiment) on the left carotid artery downstream from the sounding of flow to initiate thrombosis. The blood flow was controlled during the 60 min later to the application of the patch in the artery.
The vessel was considered totally occluded by the thrombus formed when no blood flow was detected (0.0 ml/min). In this model, occlusive thrombus formation usually takes place within 15 to 20 minutes in non-treated animals.
The fractional product concept was used to identify synergy between the compounds. In accordance with this concept, if we consider the full protection of the animal as:
[formula] where A is the rate of animals with thrombotic occlusion in treated group; and B is the rate of animals with thrombotic occlusion in the control group.
For two drugs that act of independent way:
[formula] where A1 is the rate of animals with thrombotic occlusion in the treatment group A1; A2 is the rate of animals with thrombotic occlusion in the treatment group A2; and B is the rate of animals with thrombotic occlusion in the control group
If the protection obtained with the combination of the drugs is higher than the fractional inhibition for two compounds acting independently then synergism is considered to occur.
The results are shown in table 14 and are expressed as rate of animals with thrombotic occlusion in each group.

[4] = test system: Rats, left carotid artery thrombosis (FeCl3); test: In vivo antithrombotic effect, FeCl3 carotid artery thrombosis; set-up: species or system rat; settings: single oral dose of 100 mg/Kg; no occlusion during 60 min after FeCl3 patch
Description: The method used is substantially the same as described by Kurz (Kurz K. D., et al., Thromb. Res. 1990, 60:269-280) and modified by Feuerstein (Feuerstein G. Z., et al., Artherioscler. Thromb. Vase. Biol. 1999, 19: 2554-25562).
Rats received a single oral dose of 100 mg/Kg of the compounds.
Forty-five minutes after dosing rats were anaesthetized with sodium pentobarbital (40 mg/kg, i.p.) and they were placed later dorsally on a heated (37° C.) surgical board.
The left carotid artery was isolated and a Parafilm 4 sheet (7×20 mm, American National Can) was placed under it. An electromagnetic sounding of flow (Transonic Systems Inc.) was placed on the artery to measure blood flow.
as §1
The vessel was considered totally occluded by the thrombus formed when no blood flow was detected (0.0 ml/min). In this model, thrombus formation usually takes place within 15 to 20 minutes in non-treated animals.

HUVEC cells = test: In vitro protection against cytotoxicity induced by oxygen radicals (peroxynitrite), XTT method; format: cell-based, human; settings: HUVEC pre-treated with 50 μM compound for one hour, then 800 μM peroxynitrite overnight
Text: The method used is substantially the same as described by Caveda L., et al. (J. Clin. Invest. […]; 98: 886-893).
For the determination of the capacity to inhibit the cytotoxicity induced by oxygen radicals Human Umbilical Vein Endothelial Cells (HUVEC) were used. HUVEC were isolated and cultured in M199 and 20% FCS (Fetal Calf Serum).
Test XTT assay is based on […] by the metabolically active cells of the salt of tetrazolio XTT to form an orange product, the formazan dye formed is soluble and is directly quantified using an spectrophotometer.
HUVEC cells were cultivated until a sub-confluence status in a 96 well tissue culture plate and pre-treated with 50 μM of the compound for one hour. After that, cells were treated with 800 μM of peroxynitrite for an overnight.
After overnight incubation cells were incubated with the yellow XTT solution (final concentration 0.3 mg/ml) for 4 hours. After this incubation period, orange formazan solution was formed, which was spectrophotometrically quantified using an ELISA plate reader at 450 nm
The results are shown in table 15 and are expressed as percentage of death cells.

[5] = test system: heart (AVP-induced coronary vasoconstriction); test: In vivo protection against ischemia-reperfusion damage in the heart (arginine-vasopressin induced S-wave depression); settings: p.o.; for S-wave decrement: 1 h before AVP 0.3 U/kg, vehicle 46.2 ± 4.9
Description: Experiments were performed according to the model previously described by Hirata Y at al (Journal of Cardiovascular Pharmacology, 1998, 31: 322-326)
After a food fasting period of 6 hours, animals were divided into groups of at least 8 animals each. Doses of products were given by oral sounding 1 h before the ischemia induction. Animals were anaesthetized with pentobarbital (40 mg/kg, i.p.) and the standard limb lead II electrocardiogram was recorded to detect the S-wave depression. 0.3 U/kg arginine-vasopressin (AVP) (Sigma Chemicals, St Louis, Mo., USA) was injected into the carotid artery to induce vasoconstriction of small coronary arteries and increase in coronary resistance. In all the groups received AVP 60 min after, the test drug. In all groups, after AVP injection of 10 minutes ECG recording was performed.
The results are shown in table 16 and are expressed as S-wave decrements (μvolts).

[6] = artery ring contracted with 1 μM Phenylephrine, mean ± s.d.
[7] = Clopidogrel 1.5 mg/Kg/day, oral for 3 days
[8] = Acetyl salicylic acid 100 mg/Kg/day, oral, for 3 days

Compound: O=[N+]([O-])O[C@@H]1CO[C@H]2[C@@H]1OC[C@@H]2O [Isosorbide 5-mononitrate, reference compound]
IC50 [1]: 2680 ± 330 µM
% of increment of lag phase with respect to control (LDL oxidation) (LDL): 0%
% of increment of lag phase with respect to control (plasma oxidation) [2]: 0%
EC50 (arterial rings; [6]): 920 ± 200 µM

Compound: COC(=O)[C@H](c1ccccc1Cl)N1CCc2sccc2C1 [Clopidogrel]
% of animals protected [3, 7]: (50%)
Rate of animals with thrombotic occlusion [3, 7]: 0.50

IC50 [1]: 410 ± 90 µM
EC50 (arterial rings; [6]): 43 ± 6 µM
Compound: CS[C@H]1CO[C@H]2[C@@H]1OC[C@H]2O[N+](=O)[O-] [(3), 2-methylthioisosorbide 5-mononitrate]
% of animals fully protected [4]: 100%
% of death cells (HUVEC cells): 80%

IC50 [1]: 580 ± 21 µM
EC50 (arterial rings; [6]): 50 ± 9 µM
Compound: O=[N+]([O-])O[C@@H]1CO[C@H]2[C@@H]1OC[C@@H]2SC1CCCCO1 (stereo partly shown) [(7), 2-(tetrahydropyran-2-yl-thio)isosorbide 5-mononitrate]

Compound: CC(=O)Oc1ccccc1C(=O)O [Acetyl salicylic acid]
% of animals protected [3, 8]: (50%)
Rate of animals with thrombotic occlusion [3, 8]: 0.50

melting point: 115 °C
Compound: C[S@@+]([O-])[C@H]1CO[C@H]2[C@@H]1OC[C@H]2O[N+](=O)[O-] (as salt: nitrate) [(4), 2-[(R)-methylsulfinyl]isosorbide 5-mononitrate]

IC50 [1]: 1000 ± 10 µM
EC50 (arterial rings; [6]): 338 ± 10 µM
Compound: C[S@@+]([O-])[C@H]1CO[C@H]2[C@@H]1OC[C@H]2O[N+](=O)[O-] [(4), 2-[(R)-methylsulfinyl]isosorbide 5-mononitrate]
% of animals fully protected [4]: 80%
Protection of S-wave decrement ([5]; 20 mg/kg): 21%
S-wave decrement ([5]; 20 mg/kg): 36.5 ± 11.6 μV
Protection of S-wave decrement ([5]; 100 mg/kg): 87%
S-wave decrement ([5]; 100 mg/kg): 5.9 ± 3.9 μV

Compound: O=[N+]([O-])O[C@@H]1CO[C@H]2[C@@H]1OC[C@@H]2SS[C@H]1CO[C@H]2[C@@H]1OC[C@H]2O[N+](=O)[O-] [(2), 5,5′-dinitrato-2,2′-dithiodiisosorbide]
IC50 [1]: 10 ± 7 µM
% of increment of lag phase with respect to control (plasma oxidation) [2]: 7 ± 1%
% of death cells (HUVEC cells): 80%
EC50 (arterial rings): 5.3 ± 1 µM

IC50 [1]: 850 ± 150 µM
Compound: C[S@+]([O-])[C@H]1CO[C@H]2[C@@H]1OC[C@H]2O[N+](=O)[O-] [(4bis), 2-[(S)-methylsulfinyl]isosorbide 5-mononitrate]

IC50 [1]: 1.9 ± 0.5 µM
EC50 (arterial rings; [6]): 1.2 ± 0.1 µM
Compound: O=NS[C@H]1CO[C@H]2[C@@H]1OC[C@H]2O[N+](=O)[O-] [(6), S-nitroso-2-thioisosorbide 5-mononitrate]

EC50 (arterial rings; [6]): 24 ± 5 µM
Compound: 2-thioisosorbide [(9)]
Protection of S-wave decrement ([5]; 20 mg/kg): 64%
S-wave decrement ([5]; 20 mg/kg): 16.5 ± 9.8 μV
Protection of S-wave decrement ([5]; 100 mg/kg): 79%
S-wave decrement ([5]; 100 mg/kg): 9.7 ± 4.6 μV

Source: patent US8541607B2, “Disulfide, sulfide, sulfoxide, and sulfone derivatives of cyclic sugars and uses thereof” (Lacer, S.A., priority 2003, dated 2013)
